Data as given in ChEMBL document CHEMBL6121040, “Synthesis and biological assessment of BUB1B inhibitors for the treatment of clear cell renal cell carcinoma” (Eur J Med Chem, 2025).
One block for each compound: values may come before it. Active and inactive are the calls of the source. No cut-off for these calls is given here.

What was measured:
[1] = test system: CAKI-1; test: Cytotoxicity against human CAKI-1 cells assessed as cell viability at 10 uM incubated for 1 day by MTT assay relative to control; format: functional; conditions: CAKI-1, 24 h, read-out: Activity
[2] = test system: CAKI-1; test: Cytotoxicity against human CAKI-1 cells assessed as cell viability at 10 uM incubated for 3 day by MTT assay relative to control; format: functional; conditions: CAKI-1, 72 h, read-out: Activity
[3] = test system: CAKI-1; test: Cytotoxicity against human CAKI-1 cells assessed as reduction in cell viability at 10 uM by MTT assay; format: functional, cell-based; conditions: time 1-3 day
[4] = target: T1, Mitotic checkpoint serine/threonine-protein kinase BUB1 beta (Homo sapiens, UniProt O60566); test: Inhibition of recombinant BUB1B (unknown origin) incubated for 60 mins in presence of [gamma-33P]-ATP by microplate scintillation counter analysis
T1 sequence (O60566 whole entry): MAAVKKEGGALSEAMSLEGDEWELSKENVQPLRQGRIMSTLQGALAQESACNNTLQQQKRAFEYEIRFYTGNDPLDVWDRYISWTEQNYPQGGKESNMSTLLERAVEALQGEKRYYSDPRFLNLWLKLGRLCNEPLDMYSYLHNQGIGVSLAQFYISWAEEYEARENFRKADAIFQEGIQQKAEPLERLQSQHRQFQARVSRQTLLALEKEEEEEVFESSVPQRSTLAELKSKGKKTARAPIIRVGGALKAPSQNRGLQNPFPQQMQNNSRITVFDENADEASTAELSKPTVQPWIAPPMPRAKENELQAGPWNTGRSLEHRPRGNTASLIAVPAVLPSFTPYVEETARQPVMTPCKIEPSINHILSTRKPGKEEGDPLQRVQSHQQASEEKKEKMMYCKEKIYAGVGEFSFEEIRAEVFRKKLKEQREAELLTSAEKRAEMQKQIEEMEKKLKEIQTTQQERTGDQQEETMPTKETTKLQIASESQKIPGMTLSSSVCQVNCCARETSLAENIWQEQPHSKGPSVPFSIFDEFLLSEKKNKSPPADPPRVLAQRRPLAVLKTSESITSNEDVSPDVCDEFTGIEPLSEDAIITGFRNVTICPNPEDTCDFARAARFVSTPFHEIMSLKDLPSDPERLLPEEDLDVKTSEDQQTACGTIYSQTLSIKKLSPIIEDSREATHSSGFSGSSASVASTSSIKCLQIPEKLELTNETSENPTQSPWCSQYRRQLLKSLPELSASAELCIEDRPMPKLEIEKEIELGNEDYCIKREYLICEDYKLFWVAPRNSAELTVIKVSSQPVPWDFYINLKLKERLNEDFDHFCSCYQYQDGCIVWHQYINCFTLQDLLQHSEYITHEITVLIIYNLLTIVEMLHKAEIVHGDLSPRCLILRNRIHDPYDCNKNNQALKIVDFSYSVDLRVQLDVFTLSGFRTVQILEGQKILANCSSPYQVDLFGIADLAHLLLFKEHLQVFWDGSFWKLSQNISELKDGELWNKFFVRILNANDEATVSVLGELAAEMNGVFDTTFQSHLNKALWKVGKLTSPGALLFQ

[5] = test system: CAKI-1; test: Induction of apoptosis in human CAKI-1 cells assessed as decrease in Bcl-2 protein level by measuring fold change at 10 uM incubated for 1 day by Western blot analysis (reference value: 1); format: functional
[6] = test system: CAKI-1; test: Cytotoxicity against human CAKI-1 cells assessed as reduction in cell viability incubated for 3 days by MTT assay; format: functional, cell-based; conditions: for IC50: CAKI-1, 72 h; for Activity: time 3.0 day
[7] = test system: CAKI-1; test: Induction of apoptosis in human CAKI-1 cells assessed as decrease in Bcl-2 protein level by measuring fold change at IC50 concentration incubated for 1 day by Western blot analysis (reference value: 1); format: functional
[8] = test system: CAKI-1; test: Induction of apoptosis in human CAKI-1 cells assessed as increase in cleaved caspase-8 protein level at 10 uM incubated for 1 day by Western blot analysis; format: functional, cell-based
[9] = test system: CAKI-1; test: Induction of apoptosis in human CAKI-1 cells assessed as increase in cleaved PARP level by measuring fold change at 10 uM incubated for 1 day by Western blot analysis (reference value: 1); format: functional
[10] = target: T1, Mitotic checkpoint serine/threonine-protein kinase BUB1 beta; test: Destabilization of BUB1B in human CAKI-1 cells assessed as reduction in BUB1B protein level at 20 uM preincubated for 1 hrs followed by incubation under 45 degreeC for 3 mins by CETSA analysis (reference value: 1); format: cell-based; conditions: time 63.0 min
[11] = test system: CAKI-1; test: Cytotoxicity against human CAKI-1 cells assessed as necrotic cell death incubated for 3 days by LDH assay; format: functional, cell-based; conditions: CAKI-1, 72 h
[12] = Downregulation of BUB1B protein expression level in human CAKI-1 cells at IC50 concentration incubated for 1 day by Western blot analysis (Rvb =1); format: functional
[13] = test system: CAKI-1; test: Cytotoxicity against human CAKI-1 cells assessed as reduction in cell viability incubated for 1 day by MTT assay; format: functional, cell-based; conditions: CAKI-1, 24 h
[14] = test system: CAKI-1; test: Induction of apoptosis in human CAKI-1 cells assessed as increase in cleaved PARP level by measuring fold change at IC50 concentration incubated for 1 day by Western blot analysis (reference value: 1); format: functional
[15] = test system: CAKI-1; test: Induction of apoptosis in human CAKI-1 cells assessed as increase in cleaved caspase-3 protein level at 10 uM incubated for 1 day by Western blot analysis; format: functional, cell-based
[16] = Downregulation of BUB1B protein expression level in human CAKI-1 cells at 10 uM incubated for 1 day by Western blot analysis (Rvb =1); format: functional
[17] = test system: CAKI-1; test: Induction of apoptosis in human CAKI-1 cells assessed as increase in cleaved caspase-9 protein level at 10 uM incubated for 1 day by Western blot analysis; format: functional, cell-based
[18] = Cytotoxicity against human HaCaT cells assessed as cell viability at 1 uM incubated for 1 day relative to control; format: toxicity, cell-based; conditions: read-out: Activity
[19] = Cytotoxicity against human HaCaT cells assessed as cell viability at 5 uM incubated for 1 day relative to control; format: toxicity, cell-based; conditions: read-out: Activity
[20] = Cytotoxicity against human MRC5 cells assessed as cell viability at 1 uM incubated for 1 day relative to control; format: toxicity, cell-based; conditions: read-out: Activity
[21] = Cytotoxicity against human MRC5 cells assessed as cell viability at 5 uM incubated for 1 day relative to control; format: toxicity, cell-based; conditions: read-out: Activity
[22] = test system: CAKI-1; test: Cytotoxicity against human CAKI-1 cells assessed as necrotic cell death incubated for 1 day by LDH assay; format: functional, cell-based; conditions: CAKI-1, 24 h

SMILES: COc1ccc(Nc2ncc(C)c(Nc3cccc(S(=O)(=O)NC(C)(C)C)c3)n2)cc1OC
- viability at 10 µM [1]: 36.6%

SMILES: Cc1cnc(Nc2ccc(N3CCN(C(=O)N(C)C)CC3)cc2)nc1Nc1cccc(S(=O)(=O)NC(C)(C)C)c1
- viability at 10 µM [1]: 36.2%

SMILES: Cc1ccccc1NC(=O)N1CCN(c2ccc(Nc3ncc(C)c(Nc4cccc(S(=O)(=O)NC(C)(C)C)c4)n3)cc2)CC1
- viability at 10 µM [1]: 45%

SMILES: COc1ncnc(NS(=O)(=O)c2ccc(Nc3ncc(C)c(Nc4cccc(S(=O)(=O)NC(C)(C)C)c4)n3)cc2)c1OC
- viability at 10 µM [1]: 104%

- IC50 [4]: > 100 µM
- fold change (FC) [10]: 1.33
SMILES: COc1cnccc1Nc1nc(-c2nn(Cc3c(F)cc(OCCO)cc3F)c3ccccc23)ncc1OC
- viability at 10 µM [2]: 49.7%
- Activity [3]: Time-dependent-effect
- fold change (FC) [5]: 1.03
- IC50 [6]: 10.4 µM
- Activity [6]: Dose-dependent-effect
- fold change (FC) [7]: 0.62
- Activity [8]: inactive
- fold change (FC) [9]: 1.23
- EC50 [11]: 15.9 µM
- fold change (FC) [12]: 0.65
- IC50 [13]: 24.4 µM
- fold change (FC) [14]: 2.89
- Activity [15]: inactive
- viability at 10 µM [1]: 57.8%
- fold change (FC) [16]: 0.73
- Activity [17]: inactive

- IC50 [4]: 13.1 µM
SMILES: Cc1cc(Nc2ncc(Cl)c(Nc3ccccc3S(=O)(=O)C(C)C)n2)c(OC(C)C)cc1C1CCNCC1 [CERITINIB]

SMILES: Cc1cnc(Nc2ccc(N3CCN(C(=O)N(C)c4ccccc4)CC3)cc2)nc1Nc1cccc(S(=O)(=O)NC(C)(C)C)c1
- viability at 10 µM [1]: 44.5%

SMILES: COc1cc(Nc2ncc(C)c(Nc3cccc(S(=O)(=O)NC4CCC4)c3)n2)cc(OC)c1OC
- viability at 10 µM [1]: 33%

SMILES: Cc1cnc(Nc2ccc(OCc3cccc(F)c3)c(Cl)c2)nc1Nc1cccc(S(=O)(=O)NC(C)(C)C)c1
- viability at 10 µM [1]: 96.1%

SMILES: Cc1cnc(Nc2ccc(N3CCN(C(=O)N4CCCC4)CC3)cc2)nc1Nc1cccc(S(=O)(=O)NC(C)(C)C)c1
- viability at 10 µM [1]: 43.1%

SMILES: Cc1ccc(Nc2nc(Nc3ccc(N4CCN(C)CC4)cc3)ncc2C)cc1S(N)(=O)=O
- viability at 10 µM [1]: 34.7%

SMILES: Cc1cnc(Nc2ccc(N3CCN(C(=O)c4cccc(F)c4)CC3)cc2)nc1Nc1cccc(S(=O)(=O)NC(C)(C)C)c1
- viability at 10 µM [1]: 37.3%

SMILES: Cc1ccc(Nc2ncc(C)c(Nc3cccc(S(=O)(=O)NC(C)(C)C)c3)n2)cc1Nc1nccc(-c2cccnc2)n1
- viability at 10 µM [1]: 77%

SMILES: COc1cc(Nc2ncc(C)c(Nc3cccc(S(=O)(=O)NC(C)(C)C)c3)n2)c(Cl)cc1Cl
- viability at 10 µM [1]: 108%

- IC50 [4]: 9.67 µM
- fold change (FC) [10]: 0.65
SMILES: COc1cc(Nc2ncc(C)c(Nc3cccc(S(=O)(=O)N4CCOCC4)c3)n2)cc(OC)c1OC
- viability at 10 µM [2]: 38.5%
- viability at 24 h, 1 µM [18]: 105%
- viability at 24 h, 5 µM [19]: 75.3%
- viability at 24 h, 1 µM [20]: 89.2%
- fold change (FC) [5]: 0.64
- IC50 [6]: 2.9 µM
- Activity [6]: Dose-dependent-effect
- fold change (FC) [7]: 0.5
- Activity [8]: Active
- fold change (FC) [9]: 10.69
- EC50 [11]: 41.2 µM
- fold change (FC) [12]: 0.22
- IC50 [13]: 1.83 µM
- fold change (FC) [14]: 3.76
- Activity [15]: Active
- viability at 24 h, 5 µM [21]: 70.6%
- viability at 10 µM [1]: 35.8%
- fold change (FC) [16]: 0.12
- Activity [17]: Active

SMILES: Cc1cc(NS(=O)(=O)c2ccc(Nc3ncc(C)c(Nc4cccc(S(=O)(=O)NC(C)(C)C)c4)n3)cc2)no1
- viability at 10 µM [1]: 95.5%

SMILES: CNC(=O)N1CCN(c2ccc(Nc3ncc(C)c(Nc4cccc(S(=O)(=O)NC(C)(C)C)c4)n3)cc2)CC1
- viability at 10 µM [1]: 40.6%

SMILES: COc1cc(Nc2ncc(C)c(Nc3cccc(S(=O)(=O)NC4CCC4)c3)n2)cc(OC)c1
- viability at 10 µM [1]: 42%

SMILES: Cc1ccc(Nc2ncc(C)c(Nc3cccc(S(=O)(=O)NC(C)(C)C)c3)n2)cc1Nc1nc(-c2cccnc2)cs1
- viability at 10 µM [1]: 43.5%

SMILES: Cc1cnc(Nc2ccccc2P(C)(C)=O)nc1Nc1cccc(S(=O)(=O)NC(C)(C)C)c1
- viability at 10 µM [1]: 84.4%

SMILES: Cc1cnc(Nc2ccc(N3CCN(S(=O)(=O)c4ccccc4)CC3)cc2)nc1Nc1cccc(S(=O)(=O)NC(C)(C)C)c1
- viability at 10 µM [1]: 83.8%

SMILES: Cc1cnc(Nc2ccc(N3CCN(C(=O)Nc4ccccc4F)CC3)cc2)nc1Nc1cccc(S(=O)(=O)NC(C)(C)C)c1
- viability at 10 µM [1]: 46.7%

SMILES: Cc1cnc(Nc2ccc(OCCCN3CCOCC3)cc2)nc1Nc1cccc(S(=O)(=O)NC(C)(C)C)c1
- viability at 10 µM [1]: 41.9%

SMILES: C=CC(=O)N1CCN(c2ccc(Nc3ncc(C)c(Nc4cccc(S(=O)(=O)NC(C)(C)C)c4)n3)cc2)CC1
- viability at 10 µM [1]: 44.6%

SMILES: Cc1cnc(Nc2cccc(S(=O)(=O)NC(C)(C)C)c2)nc1Nc1cccc(S(=O)(=O)NC(C)(C)C)c1
- viability at 10 µM [1]: 64.7%

SMILES: COc1ccc(S(=O)(=O)N2CCN(c3ccc(Nc4ncc(C)c(Nc5cccc(S(=O)(=O)NC(C)(C)C)c5)n4)cc3)CC2)cc1OC
- viability at 10 µM [1]: 73.8%

SMILES: COc1cc(Nc2ncc(C)c(Nc3cccc(S(=O)(=O)NC(C)(C)C)c3)n2)cc(OC)c1
- IC50 [13]: 2.79 µM
- viability at 10 µM [1]: 46.5%

SMILES: COc1ccc(Nc2ncc(C)c(Nc3cccc(S(=O)(=O)NC(C)(C)C)c3)n2)c(OC)c1
- viability at 10 µM [1]: 66.5%

SMILES: Cc1ccc(Nc2ncc(C)c(Nc3cccc(S(=O)(=O)NC(C)(C)C)c3)n2)cc1S(N)(=O)=O
- viability at 10 µM [1]: 43.2%

SMILES: COc1cccc(Nc2ncc(C)c(Nc3cccc(S(=O)(=O)NC(C)(C)C)c3)n2)c1OC
- viability at 10 µM [1]: 78%

SMILES: Cc1cnc(Nc2ccc(N3CCN(C(=O)Nc4ccccc4C(F)(F)F)CC3)cc2)nc1Nc1cccc(S(=O)(=O)NC(C)(C)C)c1
- viability at 10 µM [1]: 39.7%

SMILES: Cc1cnc(Nc2ccc(N3CCN(C)CC3)cc2)nc1Nc1cccc(S(=O)(=O)NC(C)(C)C)c1C
- viability at 10 µM [1]: 52.1%

SMILES: Cc1cnc(Nc2cccc(S(=O)(=O)N3CCOCC3)c2)nc1Nc1cccc(S(=O)(=O)NC(C)(C)C)c1
- viability at 10 µM [1]: 60.6%

SMILES: Cc1cnc(Nc2ccc(Oc3ccc(Cl)cc3)nc2)nc1Nc1cccc(S(=O)(=O)NC(C)(C)C)c1
- viability at 10 µM [1]: 87.7%

- IC50 [4]: 67.3 µM
- fold change (FC) [10]: 2.19
SMILES: Cc1cnc(Nc2ccc(N3CCN(C)CC3)cc2)nc1Nc1cccc(S(=O)(=O)NC(C)(C)C)c1
- viability at 10 µM [2]: 18.9%
- viability at 24 h, 1 µM [18]: 76.4%
- viability at 24 h, 5 µM [19]: 39.4%
- viability at 24 h, 1 µM [20]: 107%
- fold change (FC) [5]: 0.28
- IC50 [6]: 1.1 µM
- Activity [6]: Dose-dependent-effect
- fold change (FC) [7]: 0.62
- Activity [8]: Active
- fold change (FC) [9]: 24.35
- EC50 [11]: 6.6 µM
- fold change (FC) [12]: 0.14
- IC50 [13]: 1.5 µM
- fold change (FC) [14]: 2.65
- Activity [15]: Active
- viability at 24 h, 5 µM [21]: 38.8%
- viability at 10 µM [1]: 43.6%
- fold change (FC) [16]: 0.02
- IC50 [22]: 23.9 µM
- Activity [17]: Active

SMILES: Cc1cn(-c2cc(Nc3ncc(C)c(Nc4cccc(S(=O)(=O)NC(C)(C)C)c4)n3)cc(C(F)(F)F)c2)cn1
- viability at 10 µM [1]: 49.6%

SMILES: COc1cc(Nc2ncc(C)c(Nc3cccc(S(=O)(=O)N4CCOCC4)c3)n2)cc(OC)c1
- viability at 10 µM [1]: 45.4%

SMILES: COc1cc(Nc2ncc(C)c(Nc3ccc(N4CCN(C)CC4)cc3)n2)cc(OC)c1OC
- viability at 10 µM [1]: 39.9%

SMILES: C#CCN1CCN(c2ccc(Nc3ncc(C)c(Nc4cccc(S(=O)(=O)NC(C)(C)C)c4)n3)cc2)CC1
- viability at 10 µM [1]: 41.2%

SMILES: COc1ccccc1NC(=O)N1CCN(c2ccc(Nc3ncc(C)c(Nc4cccc(S(=O)(=O)NC(C)(C)C)c4)n3)cc2)CC1
- viability at 10 µM [1]: 48.4%
